Data on ten compounds can be found in ChEMBL document CHEMBL3352691, “Meroterpenoids from the alga-derived fungi Penicillium thomii Maire and Penicillium lividum Westling” (J Nat Prod, 2014).

Series [1] is described as follows: Cytotoxicity against mouse JB6 Cl41 cells after 2 hrs by MTS assay. Format: cell-based. Conditions: JB6 Cl41, 2 h.
In another series the test system is JB6 Cl41. The series can be described thus: Inhibition of AP-1 basal transcriptional activity in mouse JB6 Cl41 cells at non cytotoxic concentration after 12 hrs by luciferase reporter gene assay. The format is functional, cell-based.
Series [2] is described as follows: Inhibition of endo-1,3-beta-D-glucanase in Pseudocardium sachalinensis preincubated for 15 mins by Nelson method.
For the next series, the system named is MDA-MB-231. Kind of series: Cytotoxicity against human MDA-MB-231 cells after 2 hrs by MTS assay. Format: functional, cell-based. Conditions: MDA-MB-231, 2 h.
A short description of series [3]: Inhibition of AP-1 basal transcriptional activity in mouse JB6 Cl41 cells at 6.25 uM after 12 hrs by luciferase reporter gene assay. The format is functional. The following applies: JB6 Cl41, 12 h.
Series [4] in a line: Cytotoxicity against mouse JB6 Cl41 cells assessed as reduction in cell viability up to 100 uM after 2 hrs by MTS assay. The format is cell-based. The following applies: jb6 cl41, 2 h.

Molecules are shown by their SMILES. pIC50: −log10 of the molar value. Structures can show the parent of a compound that is named as a salt. The source made the active and inactive calls. No cut-off for these calls is given here. A value given as a limit tells only on which side of the number the result lay.

For the compound `COc1c2c(c(C)c3c1C(=O)OC3)O[C@@]1(C)C[C@@H](O)[C@@H](C(C)(C)O)[C@@](C)(CCC(=O)O)[C@H]1C2`, the pIC50 was over 5.00 in series [1], 6.00 in series [2] and over 5.00 with MDA-MB-231. In addition, in the series with JB6 Cl41, the inhibition result is “Active”.

Consider `COc1c2c(c(C)c3c1C(=O)OC3)O[C@@]1(C)C[C@@H](O)[C@H]3C(C)(C)OC(=O)CC[C@]3(C)[C@H]1C2`, for which the pIC50 in series [1] was over 5.00; in series [2], 5.70; in the series with MDA-MB-231, over 5.00. Moreover, in the series with JB6 Cl41, the inhibition result is “Active”. The inhibition at 6.25 µM in series [3] came out at 27.6%. In addition, the Activity entry in series [4] was “Non-toxic”.

In the case of `COc1c2c(c(C)c3c1C(=O)OC3)O[C@@]1(C)CC[C@H]3C(C)(C)OC(=O)CC[C@]3(C)[C@H]1C2`, the values for the pIC50 (in series [1]; in series [2]; in the series on MDA-MB-231) were over 5.00, 8.00 and over 5.00, respectively. For the same compound, in the series on JB6 Cl41, the inhibition entry was “Active”. For the same compound, at 6.25 µM the inhibition in series [3] was 36.3%. In addition, the Activity entry in series [4] is recorded as “Non-toxic”.

On to `C=C(C)[C@@H]1[C@H](O)C[C@]2(C)Oc3c(C)c4c(c(OC)c3C[C@@H]2[C@]1(C)CCC(=O)O)C(=O)OC4`, for which, in series [2], the pIC50 was 6.92.

Take `CCCCOC(=O)CC[C@@]1(C)[C@H]2Cc3c(c(C)c4c(c3OC)C(=O)OC4)O[C@@]2(C)C[C@@H](O)[C@H]1C(C)(C)O`: the negative logarithm of the IC50 (pIC50) in series [1] was over 5.00; in series [2] it was 6.70; with MDA-MB-231, over 5.00. Further, the inhibition result in the series on JB6 Cl41 is “Active”. This compound returned an inhibition at 6.25 µM in series [3] of 36.1%. Further, the Activity entry in series [4] was “Non-toxic”.

As to `C=C(C)[C@@H]1CC[C@]2(C)Oc3c(C)c4c(c(OC)c3C[C@@H]2[C@]1(C)CCC(=O)O)C(=O)OC4`, the pIC50 in series [1] was over 5.00; in series [2], 3.00; in the series on MDA-MB-231, over 5.00.

`COc1c2c(c(C)c3c1C(=O)OC3)O[C@@]1(C)CC[C@@H](C(C)(C)O)[C@@](C)(CCC(=O)O)[C@H]1C2`: the pIC50 in series [2] was 8.00.

In series [2], `COc1c2c(c(C)c3c1C(=O)OC3)O[C@@]1(C)C[C@@H](O)[C@]34O[C@](O)(CC[C@]3(C)[C@H]1C2)OC4(C)C` had a pIC50 of 3.60.

`CC(CC[C@@H](C)[C@H]1CC[C@H]2[C@@H]3C[C@H](OS(=O)(=O)O)[C@H]4C[C@H](OS(=O)(=O)O)[C@@H](OS(=O)(=O)O)C[C@]4(C)[C@H]3CC[C@]12C)C(C)(C)C` (some centres not stated) [HALISTANOL SULFATE]: the pIC50 in series [2] was 3.89. Compared with the last compound, the pIC50 is 0.29 log units higher.

On to `CCCCOC(=O)CC[C@@]1(C)[C@H]2Cc3c(c(C)c4c(c3OC)C(=O)OC4)O[C@@]2(C)CC[C@H]1C(C)(C)O`, for which the pIC50 in series [2] was 7.00. Further, the inhibition at 6.25 µM in series [3] came to 34%. Moreover, the Activity entry in series [4] was “Non-toxic”.
